Where two headings read alike, the source gives them in different places.
How the values were obtained:
[1] = Pharmacokinetic study of 14A in male CD-1 mice; format: in vivo; details: CD-1, mouse, blood
Protocol: For pharmacokinetic studies with (14A), (14A) was formulated in 20% hydroxypropyl-beta-cyclodextrin (HPCD) and male CD-1 mice were given a single dose of 14A at 3 mg/kg i.p. and intravenous (i.v.) and 10 mg/kg oral (p.o.). Prior to dosing, mice were fasted overnight until 4 hours post-dosing. Blood samples were collected at the indicated timepoints and analyzed by HPLC/MS/MS to evaluate the concentration of (14A).

[2] = test system: MOLM-14; assay: Cell growth assay, MOLM-14 AML cell line; format: cell-based, human; details: Homo sapiens
Protocol: (§1) For all other cell lines, compounds were serially diluted in medium and dispensed in triplicate in 96-well plates (0.1% DMSO final for assay) followed by the addition of exponentially growing cells at densities ranging from 5,000 to 30,000 cells/well. Cells were also seeded into 2 additional control wells containing vehicle (0.1% DMSO). […] To determine the estimated cell number in each well, cells that were counted in the control well were diluted 3-fold for an 8-point dilution series, and transferred to 384-well plates in duplicate, 20 μL per well. Cells in all other wells were diluted 4-fold and transferred to 384-well plates in duplicate, 20 μL per well. 20 μL of CellTiter-Glo (Promega) was subsequently added to all wells and luminescence was detected using a SPECTRAmax M3. The control well dilution series was fit to a linear regression and used as a standard for calculating the estimated cell number for each well. For days 7 and 10, total estimated cell number represents the split-adjusted theoretical cell number.

[3] = test system: SET-2; assay: Cell growth assay, SET-2 cell line; format: cell-based; details: Homo sapiens, SET-2, 240 h; read-out: SET-2 GI50 day 10
Protocol: (§2) For all other cell lines, compounds were serially diluted in medium and dispensed in triplicate in 96-well plates (0.1% DMSO final for assay) followed by the addition of exponentially growing cells at densities ranging from 5,000 to 30,000 cells/well. Cells were also seeded into 2 additional control wells containing vehicle (0.1% DMSO). After 3 days, the number of viable cells in one of the control wells was counted by hemocytometer or MOXI Z (Orflo) and an equal volume of cells for all wells were split-back with fresh vehicle/compounds such that the resulting seeding density for the control well was 5,000-30,000 cells/well, matching the initial seeding density in that well. This procedure was repeated on day 7 and day 10. % growth was calculated as % growth=100×(total estimated cell number in well−day 0 starting cell number)/(total average vehicle estimated cell number−day 0 starting cell number). To determine the estimated cell number in each well, cells that were counted in the control well were diluted 3-fold for an 8-point dilution series, and transferred to 384-well plates in duplicate, 20 μL per well. Cells in all other wells were diluted 4-fold and transferred to 384-well plates in duplicate, 20 μL per well. 20 μL of CellTiter-Glo (Promega) was subsequently added to all wells and luminescence was detected using a SPECTRAmax M3. The control well dilution series was fit to a linear regression and used as a standard for calculating the estimated cell number for each well. For days 7 and 10, total estimated cell number represents the split-adjusted theoretical cell number.

[4] = test system: MV4;11; assay: Cell growth assay, MV4;11 AML cell line; format: cell-based, human; details: Homo sapiens
Protocol: as §1

[5] = test system: K562; assay: Cell growth assay, K562 cell line; format: cell-based, human; details: Homo sapiens, K562, 240 h; day 10; lack of activity is taken as evidence of on-target selectivity
Protocol: as §2

[6] = test system: Human Umbilical Vein Endothelial Cells (HUVECs); assay: HUVEC growth inhibition (CellTiter-Blue, 96 h); format: cell-based; details: 96 hour treatment
Protocol: HUVECs were plated in triplicate in 96-well plates at a density of 1,000 cells/well in 75 μL. After 24 h, compounds were serially diluted in medium and delivered to cells as 4× solutions in 25 μL (0.1% DMSO final for assay). 96 h after compound addition, CellTiter-Blue (Promega) was added to the wells, plates were incubated at 37° C. for 90 min, and fluorescence (555 nm excitation; 580 nm emission) was detected using a SPECTRAmax M3. IC50 was determined by fitting the data to a four-parameter dose-response curve using GraphPad Prism 5.0.

[7] = test system: Human Umbilical Vein Endothelial Cells (HUVECs); details: less potent than cortistatin A; Aoki et al. 2007; cited from earlier work
[8] = MOLM-14, 240 h, day 10, cells passaged, fresh compound added on days 3 and 7, read-out: MOL M14 G150 day 10
[9] = MV4-11, 240 h, day 10, cells passaged, fresh compound added on days 3 and 7, read-out: MV 4;11 GI50 day 10
[10] = MOLM-14, day 7, fresh compound added on day 3, read-out: MOL M14 GI50 day 7
[11] = MV4-11, day 7, fresh compound added on day 3, read-out: MV4;11 GI50 day 7

| Compound | GI50 [2, 8] | GI50 [4, 9] | GI50 [5] | further results |
| --- | --- | --- | --- | --- |
| CN(C)[C@@H]1CCC2=CC3=CC[C@]4(C)[C@@H](c5ccc6ccncc6c5)CC[C@H]4C34CC[C@]2(C1)O4 [14A, α-dimethylamine] |  |  |  | clearance ([1]; 3 mg/kg IV): 29 mL/min/kg; Cmax ([1]; 10 mg/kg PO in 20% HPCD, after 2 hours, read-out: Cmax after oral dosing): 255 ng/mL; half-life ([1]; 10 mg/kg PO in 20% HPCD, read-out: T1/2 after oral dosing (converted)): ~5 h; concentration at 24 h ([1]; 10 mg/kg PO, 24 h, read-out: oral C24 trough concentration): 14.2 ng/mL; bioavailability ([1]; ip, 3 mg/kg, 3 mg/kg IP, read-out: IP bioavailability): 95%; Vd ([1]; iv, 3 mg/kg, 3 mg/kg IV, read-out: Vss): 11.7 L/kg; bioavailability ([1]; oral, 10 mg/kg, 10 mg/kg PO vs 3 mg/kg IV, read-out: oral bioavailability): 44% |
| C[C@]12CC=C3C=C4CC[C@@H](N5CCOCC5)C[C@]45CCC3(O5)[C@@H]1CC[C@@H]2c1ccc2ccncc2c1 [15A, α-morpholine] | 20 nM | 2.5 nM |  | GI50 [3]: 8 nM |
| C[C@]12CC=C3C=C4CC[C@H](N5CCOCC5)C[C@]45CCC3(O5)[C@@H]1CC[C@@H]2c1ccc2ccncc2c1 [15B, β-morpholine] | 12.5 nM | 12 nM | > 1000 nM |  |
| CN1CCN([C@H]2CCC3=CC4=CC[C@]5(C)[C@@H](c6ccc7ccncc7c6)CC[C@H]5C45CC[C@]3(C2)O5)CC1 [16B, β-N-methylpiperazine] | 9 nM | 8 nM | > 1000 nM | GI50 [2, 10]: 17 nM; GI50 [4, 11]: 15 nM |
| C[C@]12CC=C3C=C4CC[C@H](N5CCC5)C[C@]45CCC3(O5)[C@@H]1CC[C@@H]2c1ccc2ccncc2c1 [18B, β-azetidine] | 13 nM | 13 nM | > 1000 nM | GI50 [2, 10]: 25 nM; GI50 [4, 11]: 20 nM |
| C[C@]12CC=C3C=C4CC[C@@H](N5CCCC5)C[C@]45CC[C@]3(O5)[C@@H]1CC[C@@H]2c1ccc2ccncc2c1 [19A, α-pyrrolidine] | 5 nM | 1.5 nM |  | GI50 [3]: 0.4 nM |
| CN(C)[C@H]1CCC2=CC3=CC[C@]4(C)C(c5ccc6ccncc6c5)=CC[C@H]4[C@@]34CC[C@]2(C1)O4 [23B, β-dimethylamine 17,18-unsaturated isoquinoline] | 55 nM | 35 nM | > 1000 nM |  |
| CN[C@@H]1CCC2=CC3=CC[C@]4(C)C(c5ccc6ccncc6c5)CC[C@H]4C34CC[C@]2(C1)O4 (stereo partly drawn) [24A, α-monomethylamine] | 18 nM | 1 nM |  | GI50 [3]: 0.5 nM |
| C[C@]12CC=C3C=C4CC[C@@H](N)CC45CC[C@]3(O5)[C@@H]1CC[C@@H]2c1ccc2ccncc2c1 [62A, α-primaryamine] | 5 nM | 0.4 nM |  | GI50 [3]: 0.45 nM |
| C[C@]12CC=C3C=C4CC[C@@H](NS(C)(=O)=O)C[C@]45CCC3(O5)[C@@H]1CC[C@@H]2c1ccc2ccncc2c1 [73A, α-methylsulfonamide] | 200 nM | 90 nM | > 1000 nM |  |
| C[C@]12CC=C3C=C4CC[C@H](NS(C)(=O)=O)C[C@]45CCC3(O5)[C@@H]1CC[C@@H]2c1ccc2ccncc2c1 [73B, β-methylsulfonamide] | 200 nM | 150 nM | > 1000 nM |  |
| CC1(C)NC(=O)N([C@@H]2CCC3=CC4=CC[C@]5(C)[C@@H](c6ccc7ccncc7c6)CC[C@H]5C45CC[C@]3(C2)O5)C1=O [74A, α-dimethylhydantoin] | 800 nM | 400 nM | > 1000 nM |  |
| C[C@]12CC=C3C=C4[C@@H](O)[C@H](O)[C@@H]([N+](C)(C)[O-])CC45CC[C@]3(O5)[C@@H]1CC[C@@H]2c1ccc2ccncc2c1 [cortistatin A N-oxide, Cortistatin A N-oxide] |  |  |  | inhibition of HUVEC proliferation compared with cortistatin A [6]: equipotent |
| cortistatin J |  |  |  | potency at inhibiting HUVEC proliferation relative to cortistatin A [7]: 8 fold |
